Measured values from patent publication US20240358693A1, “METHODS OF TREATING PAIN” (Aisa Pharma, Inc., priority 2023, published 2024).

Test system: participants with SSc-RP
Assay: Scleroderma Health Assessment Questionnaire (SHAQ): disability indices and visual analog scales
Assay type: in vivo, human
In short: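 Participants with SSc-RP completed the SHAQ at screening and each in-clinic visit. Standard and alternative disability indices (eight categories, 0–3; standard adjusts for aids/assistance) plus Raynaud's VAS on interference over the past 7 days. Reported as absolute change from baseline to end of each dosing period.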

[1] = Modified ITT, Part A, dose Cilnidipine 10 mg, Tadalafil 5 mg, or 10 mg + 5 mg
[2] = PP Population, Part A, sensitivity analysis, cilnidipine 10 mg and/or tadalafil 5 mg as labelled
[3] = Tadalafil 5 mg (N = 4), Modified ITT, Part A
[4] = Tadalafil 5 mg (N = 4), patients with diagnosis of SSc, sensitivity analysis, Modified ITT, Part A
[5] = Tadalafil 5 mg, Day 12, PP Population Part A, SSc patients
[6] = Tadalafil 5 mg, Day 12, PP Population, Part A
[7] = Tadalafil 5 mg, PP Population Part A, SSc patients

## CN1CC(=O)N2[C@H](c3ccc4c(c3)OCO4)c3[nH]c4ccccc4c3C[C@@H]2C1=O [Tadalafil, tadalafil]
[1]
  SHAQ alternative disability index, In Clinic Visit (Day 12), Mean: 0.375
  SHAQ alternative disability index, In Clinic Visit (Day 12), Median: 0.250
[2]
  SHAQ Visual Analogue Scale - Breathing Problems: Baseline, Mean: 3.240
  SHAQ Visual Analogue Scale - Breathing Problems: Baseline, Median: 3.100
  SHAQ Visual Analogue Scale - Breathing Problems: Change from Baseline (Day 12), Mean: 0.500
  SHAQ Visual Analogue Scale - Breathing Problems: Change from Baseline (Day 12), Median: 1.050
  SHAQ Visual Analogue Scale - Breathing Problems: In-Clinic Visit (Day 12), Mean: 4.300
  SHAQ Visual Analogue Scale - Breathing Problems: In-Clinic Visit (Day 12), Median: 4.000
  SHAQ Visual Analogue Scale - Breathing Problems: Percent Change from Baseline (Day 12), Mean: −2.66%
  SHAQ Visual Analogue Scale - Breathing Problems: Percent Change from Baseline (Day 12), Median: 29.58%
  SHAQ Visual Analogue Scale - Finger Ulcers: Baseline, Mean: 1.700
  SHAQ Visual Analogue Scale - Finger Ulcers: Baseline, Median: 0.100
  SHAQ Visual Analogue Scale - Finger Ulcers: Change from Baseline (Day 12), Mean: 0.250
  SHAQ Visual Analogue Scale - Finger Ulcers: Change from Baseline (Day 12), Median: 0.000
  SHAQ Visual Analogue Scale - Finger Ulcers: In-Clinic Visit (Day 12), Mean: 2.325
  SHAQ Visual Analogue Scale - Finger Ulcers: In-Clinic Visit (Day 12), Median: 0.050
  SHAQ Visual Analogue Scale - Finger Ulcers: Percent Change from Baseline (Day 12), Mean: 6.10%
  SHAQ Visual Analogue Scale - Finger Ulcers: Percent Change from Baseline (Day 12), Median: 6.10%
  SHAQ Visual Analogue Scale - Intestinal Problems: Baseline, Mean: 2.700
  SHAQ Visual Analogue Scale - Intestinal Problems: Baseline, Median: 0.900
  SHAQ Visual Analogue Scale - Intestinal Problems: Change from Baseline (Day 12), Mean: −0.125
  SHAQ Visual Analogue Scale - Intestinal Problems: Change from Baseline (Day 12), Median: 0.000
  SHAQ Visual Analogue Scale - Intestinal Problems: In-Clinic Visit (Day 12), Mean: 3.025
  SHAQ Visual Analogue Scale - Intestinal Problems: In-Clinic Visit (Day 12), Median: 1.450
  SHAQ Visual Analogue Scale - Intestinal Problems: Percent Change from Baseline (Day 12), Mean: −6.92%
  SHAQ Visual Analogue Scale - Intestinal Problems: Percent Change from Baseline (Day 12), Median: 0.00%
  SHAQ Visual Analogue Scale - Overall Disease Severity: Baseline, Mean: 4.100
  SHAQ Visual Analogue Scale - Overall Disease Severity: Baseline, Median: 5.500
  SHAQ Visual Analogue Scale - Overall Disease Severity: Change from Baseline (Day 12), Mean: 0.625
  SHAQ Visual Analogue Scale - Overall Disease Severity: Change from Baseline (Day 12), Median: 0.700
  SHAQ Visual Analogue Scale - Overall Disease Severity: In-Clinic Visit (Day 12), Mean: 5.600
  SHAQ Visual Analogue Scale - Overall Disease Severity: In-Clinic Visit (Day 12), Median: 6.550
  SHAQ Visual Analogue Scale - Overall Disease Severity: Percent Change from Baseline (Day 12), Mean: 32.49%
  SHAQ Visual Analogue Scale - Overall Disease Severity: Percent Change from Baseline (Day 12), Median: 26.79%
  SHAQ Visual Analogue Scale - Raynaud's: Baseline, Mean: 4.860
  SHAQ Visual Analogue Scale - Raynaud's: Baseline, Median: 6.400
  SHAQ Visual Analogue Scale - Raynaud's: Change from Baseline (Day 12), Mean: −0.825
  SHAQ Visual Analogue Scale - Raynaud's: Change from Baseline (Day 12), Median: −0.500
  SHAQ Visual Analogue Scale - Raynaud's: In-Clinic Visit (Day 12), Mean: 4.950
  SHAQ Visual Analogue Scale - Raynaud's: In-Clinic Visit (Day 12), Median: 5.200
  SHAQ Visual Analogue Scale - Raynaud's: Percent Change from Baseline (Day 12), Mean: −19.71%
  SHAQ Visual Analogue Scale - Raynaud's: Percent Change from Baseline (Day 12), Median: −20.67%
[3]
  SHAQ Overall Severity: Baseline, Mean: 4.975
  SHAQ Overall Severity: Baseline, Median: 6.000
  SHAQ Overall Severity: Change from Baseline, Mean: 0.625,
  SHAQ Overall Severity: Change from Baseline, Median: 0.700
  SHAQ Overall Severity: Day 12, Mean: 5.600
  SHAQ Overall Severity: Day 12, Median: 6.550
  SHAQ Overall Severity: Percent Change from Baseline, Mean: 32.49%
  SHAQ Overall Severity: Percent Change from Baseline, Median: 26.790%
[4]
  SHAQ Standard Disability Index: Baseline, Mean: 0.594
  SHAQ Standard Disability Index: Baseline, Median: 0.625
  SHAQ Standard Disability Index: Change from Baseline, Mean: −0.063
  SHAQ Standard Disability Index: Change from Baseline, Median: −0.063
  SHAQ Standard Disability Index: Day 12, Mean: 0.531
  SHAQ Standard Disability Index: Day 12, Median: 0.563
  SHAQ Standard Disability Index: Percent Change from Baseline, Mean: −9.26%
  SHAQ Standard Disability Index: Percent Change from Baseline, Median: −11.11%
[5]
  SHAQ Visual Analogue Scale - Breathing Problems, Change from Baseline, Mean: 0.500
  SHAQ Visual Analogue Scale - Breathing Problems, Change from Baseline, Median: 1.050
  SHAQ Visual Analogue Scale - Breathing Problems, Percent Change from Baseline, Mean: −2.66%
  SHAQ Visual Analogue Scale - Breathing Problems, Percent Change from Baseline, Median: 29.58%
  SHAQ Visual Analogue Scale - Finger Ulcers, Change from Baseline, Mean: 0.250
  SHAQ Visual Analogue Scale - Finger Ulcers, Change from Baseline, Median: 0.000
  SHAQ Visual Analogue Scale - Finger Ulcers, Percent Change from Baseline, Mean: 6.10%
  SHAQ Visual Analogue Scale - Finger Ulcers, Percent Change from Baseline, Median: 6.10%
  SHAQ Visual Analogue Scale - Intestinal Problems, Change from Baseline, Mean: −0.125
  SHAQ Visual Analogue Scale - Intestinal Problems, Change from Baseline, Median: 0.000
  SHAQ Visual Analogue Scale - Intestinal Problems, Percent Change from Baseline, Mean: −6.92%
  SHAQ Visual Analogue Scale - Intestinal Problems, Percent Change from Baseline, Median: 0.00%
  SHAQ Visual Analogue Scale - Overall Disease Severity, Change from Baseline, Mean: 0.625
  SHAQ Visual Analogue Scale - Overall Disease Severity, Change from Baseline, Median: 0.700
  SHAQ Visual Analogue Scale - Overall Disease Severity, Percent Change from Baseline, Mean: 32.49%
  SHAQ Visual Analogue Scale - Overall Disease Severity, Percent Change from Baseline, Median: 26.79%
  SHAQ Visual Analogue Scale - Pain, Change from Baseline, Mean: 1.000
  SHAQ Visual Analogue Scale - Pain, Change from Baseline, Median: 0.800
  SHAQ Visual Analogue Scale - Pain, Percent Change from Baseline, Mean: 31.35%
  SHAQ Visual Analogue Scale - Pain, Percent Change from Baseline, Median: 10.81%
  SHAQ Visual Analogue Scale - Raynaud's, Change from Baseline, Mean: −0.825
  SHAQ Visual Analogue Scale - Raynaud's, Change from Baseline, Median: −0.500
  SHAQ Visual Analogue Scale - Raynaud's, Percent Change from Baseline, Mean: −19.71%
  SHAQ Visual Analogue Scale - Raynaud's, Percent Change from Baseline, Median: −20.67%
[6]
  SHAQ Alternative Disability Index: Change from Baseline, Mean: −0.094
  SHAQ Alternative Disability Index: Change from Baseline, Median: −0.125
  SHAQ Alternative Disability Index: In-Clinic Visit (Day 12), Mean: 0.375
  SHAQ Alternative Disability Index: In-Clinic Visit (Day 12), Median: 0.250
  SHAQ Alternative Disability Index: Percent Change from Baseline, Mean: −43.70%
  SHAQ Alternative Disability Index: Percent Change from Baseline, Median: −20.00%
  SHAQ Standard Disability Index: Change from Baseline, Mean: −0.063
  SHAQ Standard Disability Index: Change from Baseline, Median: −0.063
  SHAQ Standard Disability Index: In-Clinic Visit (Day 12), Mean: 0.531
  SHAQ Standard Disability Index: In-Clinic Visit (Day 12), Median: 0.563
  SHAQ Standard Disability Index: Percent Change from Baseline, Mean: −9.26%
  SHAQ Standard Disability Index: Percent Change from Baseline, Median: −11.11%
  SHAQ Visual Analogue Scale - Pain: Change from Baseline, Mean: 1.000
  SHAQ Visual Analogue Scale - Pain: Change from Baseline, Median: 0.800
  SHAQ Visual Analogue Scale - Pain: In-Clinic Visit (Day 12), Mean: 5.300
  SHAQ Visual Analogue Scale - Pain: In-Clinic Visit (Day 12), Median: 5.850
  SHAQ Visual Analogue Scale - Pain: Percent Change from Baseline, Mean: 31.35%
  SHAQ Visual Analogue Scale - Pain: Percent Change from Baseline, Median: 10.81%
[7]
  SHAQ Visual Analogue Scale - Breathing Problems, In-Clinic Visit (Day 12), Mean: 4.300
  SHAQ Visual Analogue Scale - Breathing Problems, In-Clinic Visit (Day 12), Median: 4.000
  SHAQ Visual Analogue Scale - Finger Ulcers, In-Clinic Visit (Day 12), Mean: 2.325
  SHAQ Visual Analogue Scale - Finger Ulcers, In-Clinic Visit (Day 12), Median: 0.050
  SHAQ Visual Analogue Scale - Intestinal Problems, In-Clinic Visit (Day 12), Mean: 3.025
  SHAQ Visual Analogue Scale - Intestinal Problems, In-Clinic Visit (Day 12), Median: 1.450
  SHAQ Visual Analogue Scale - Overall Disease Severity, In-Clinic Visit (Day 12), Mean: 5.600
  SHAQ Visual Analogue Scale - Overall Disease Severity, In-Clinic Visit (Day 12), Median: 6.550
  SHAQ Visual Analogue Scale - Pain, In-Clinic Visit (Day 12), Mean: 5.300
  SHAQ Visual Analogue Scale - Pain, In-Clinic Visit (Day 12), Median: 5.850
  SHAQ Visual Analogue Scale - Raynaud's, In-Clinic Visit (Day 12), Mean: 4.950
  SHAQ Visual Analogue Scale - Raynaud's, In-Clinic Visit (Day 12), Median: 5.200
